Patent US12274687B2, “Methods for treating ascites” (Martin Pharmaceuticals, Inc., priority 2021, dated 2025)
“Also recorded” adds a separate entry of the source.

Tests used:
[1] = test system: RA patients; details: small cohort of RA patients; cited from earlier work
[2] = test system: cirrhotic subjects with RA; experiment: Open-label, single-arm clinical study of docarpamine on ascites formation (frequency of LVP, volume of ascitic fluid drained); assay type: in vivo, human
Procedure: An open-label, single-arm study in which each subject serves as his/her own control is conducted. The study assesses the effect of DCP treatment on ascites formation in cirrhotic subjects with RA, by examining the frequency of LVP and the volume of ascitic fluid drained. All subjects participate in a 90-day open-label treatment period. […] Ascites history (relevant medications, LVP dates, and volume of drained fluid) for the 90 days prior to treatment and the 90 days after treatment are collected and used for comparison with on-treatment frequency and volume. The study population consists of cirrhotic patients between 18 and 70 years of age, inclusive, with refractory ascites, subject to the following inclusion and exclusion criteria. • Patients 18 years to 70 years of age. • Documented cirrhosis of the liver. • Refractory ascites, defined as ascites not manageable with diuretics and diet restriction, managed with periodic large volume therapeutic paracentesis. • Patients must have therapeutic […] 3 days prior to enrollment and a documented minimum of 3 additional therapeutic […] 90 days prior to enrollment, with at least 1 every 30 days. • Outpatient, with expected survival of at least 6 months. • Willing and able to complete an informed consent form.

[3] = test system: patients with RA; details: cited from earlier work
[4] = administered orally; high rates of metabolism in gut / small intestine and liver; cited from earlier work
[5] = high dose 4500 mg per day (1500 mg 3 times per day), 90 days treatment, on average, vs 90 days prior to treatment

SMILES	efficacy in refractory ascites [1]	effects on LVP, ascites volume and renal markers at low dose ([2]; 750 mg 3 times per day (2250 mg per day), 90 days: effects not observed)	time during which patients do not require LVP ([2]; 4500 mg per day group, some patients / others)	other markers of improved renal function ([2]; 4500 mg per day, 90 days)	sodium excretion ([2]; 4500 mg per day, 90 days)	Renin and/or aldosterone levels ([2]; 4500 mg per day, many patients, in some cases to normal)	urinary output on treatment ([2]; 4500 mg per day, most patients, from 500-1000 ml before, printed '1500-2000 ml or more') [mL]	frequency of LVP over 90 days [2, 5]	volume of ascites removed over 90 days [2, 5]	frequency and volume of LVP once a patient stops treatment ([2]; off-treatment follow-up after 90 days at 4500 mg per day)	persistence of the decrease in LVP after stopping treatment ([2]; off-treatment follow-up, before beginning to increase again)	changes of blood urea nitrogen, creatinine, creatinine clearance, blood pressure, pulse rate, serum sodium, serum aldosterone and GFR [3]	effective renal plasma flow [3]	oral bioavailability [4]
CCOC(=O)Oc1ccc(CCNC(=O)[C@H](CCSC)NC(C)=O)cc1OC(=O)OCC [docarpamine]	effective	only in the high dose	more than one month; also recorded: more than two months	respond positively	Increased	reduced	1500 to 2000	reduced by more than half	reduced by more than half	greater decreases	one or more months			
NCCc1ccc(O)c(O)c1 [dopamine]												no difference	Positive effects	not orally bioavailable
